Assay results taken from patent US20150105252A1, “SUBSTITUTED PYRAZOLES AS HERBICIDES” (E I DU PONT DE NEMOURS AND COMPANY, priority 2013, published 2015).

Assays:
Test in all cases: Test C postemergence
waterhemp = assay type: in vivo, Amaranthus rudis
Outline: (§1)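 Visual rating, 0–100 scale (0 no effect, 100 complete control), vs untreated controls after 13–15 d greenhouse. Pre: seeds in loam/sand, treated at sowing. Post: plants in peat-based mix, 1- to 4-leaf (2–18 cm). Solvent + surfactant formulation, non-phytotoxic.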

soybean = assay type: in vivo, Glycine max
Description: (§2) Seeds of plant species selected from blackgrass (Alopecurus myosuroides), ryegrass, Italian (Italian ryegrass, Lolium multiflorum), wheat (winter wheat, Triticum aestivum), galium (catchweed bedstraw, Galium aparine), corn (Zea mays), crabgrass, large (large crabgrass, Digitaria sanguinalis), foxtail, giant (giant foxtail, Setaria faberii), johnsongrass (Sorghum halepense), lambsquarters (Chenopodium album), morningglory (Ipomoea coccinea), nutsedge, yellow (yellow nutsedge, Cyperus esculentus), pigweed (redroot pigweed, Amaranthus retroflexus), ragweed (common ragweed, Ambrosia elation), soybean (Glycine max), barnyardgrass (Echinochloa crus-galli), oilseed rape (Brassica napus), waterhemp (common waterhemp, Amaranthus rudis), oat, wild (wild oat, Avena fatua), kochia (Kochia scoparia), Surinam grass (Brachiaria decumbens), foxtail, green (green foxtail, Setaria viridis), goosegrass (Eleusine indica), bromegrass, downy (downy bromegrass, Bromus tectorum), nightshade (eastern black nightshade, Solanum ptycanthum), cocklebur (common cocklebur, Xanthium strumarium), cupgrass, woolly (woolly cupgrass, Eriochloa villosa), bermudagrass (Cynodon dactylon), sunflower, (common oilseed sunflower, Helianthus annuus), Russian thistle (Salsola kali), and velvetleaf (Abutilon theophrasti) were planted into a blend of loam soil and sand and treated preemergence with test chemicals formulated in a non-phytotoxic solvent mixture which included a surfactant.
(§3) At the same time, plants selected from these crop and weed species and also chickweed (common chickweed, Stellaria media), canarygrass (littleseed canarygrass, Phalaris minor), and deadnettle (henbit deadnettle, Lamium amplexicaule), were planted in pots containing Redi-Earth® planting medium (Scotts Company, 14111 Scottslawn Road, Marysville, Ohio 43041) comprising spaghnum peat moss, vermiculite, wetting agent and starter nutrients and treated with postemergence applications of test chemicals formulated in the same manner. Plants ranged in height from 2 to 18 cm (1- to 4-leaf stage) for postemergence treatments. Treated plants and controls were maintained in a greenhouse for 13 to 15 days, after which time all species were compared to controls and visually evaluated. Plant response ratings, summarized in Table C, are based on a scale of 0 to 100 where 0 is no effect and 100 is complete control. A dash (-) response means no test result.

corn = assay type: in vivo, Zea mays
Description: as §2, §3

ragweed = assay type: in vivo, Ambrosia elation
Outline: as §1

foxtail, giant = assay type: in vivo, Setaria faberii
Outline: as §1

wheat = assay type: in vivo, Triticum aestivum
Outline: as §1

nutsedge, yellow = assay type: in vivo, Cyperus esculentus
Description: as §2, §3

oilseed rape = assay type: in vivo, Brassica napus
Outline: as §1

ryegrass, Italian = assay type: in vivo, Lolium multiflorum
Outline: as §1

barnyardgrass = assay type: in vivo, Echinochloa crus-galli
Description: as §2, §3

pigweed = assay type: in vivo, Amaranthus retroflexus
Description: as §2, §3

galium = assay type: in vivo, Galium aparine
Outline: as §1

kochia = assay type: in vivo, Kochia scoparia
Outline: as §1

oat, wild = assay type: in vivo, Avena fatua
Description: as §2, §3

lambsquarters = assay type: in vivo, Chenopodium album
Outline: as §1

[1] = Postemergence, 31 g ai/ha, visually evaluated after 13 to 15 days
[2] = postemergence, 62 g ai/ha, scale 0 to 100
[3] = postemergence, 125 g ai/ha, scale 0 to 100, 0 no effect, 100 complete control

SMILES: CCc1cc(C(=O)NOC(C)C)nn1Cc1ccnc(C(F)(F)F)c1 [Compound 101]
- Plant response rating (scale of 0 to 100), Waterhemp (waterhemp; Postemergence, 16 g ai/ha): 10
- Plant response rating (scale of 0 to 100 where 0 is no effect and 100 is complete control), Waterhemp (waterhemp; [1]): 30
- Waterhemp plant response rating (waterhemp; [2]): 35
- Plant response rating, Waterhemp (waterhemp; [3]): 75
- Plant response rating (scale of 0 to 100), Soybean (soybean; Postemergence, 16 g ai/ha): 15
- Plant response rating (scale of 0 to 100 where 0 is no effect and 100 is complete control), Soybean (soybean; [1]): 20
- Soybean plant response rating (soybean; [2]): 25
- Plant response rating, Soybean (soybean; [3]): 40
- Plant response rating (scale of 0 to 100), Corn (corn; Postemergence, 16 g ai/ha): 5
- Plant response rating (scale of 0 to 100 where 0 is no effect and 100 is complete control), Corn (corn; [1]): 10
- Corn plant response rating (corn; [2]): 10
- Plant response rating, Corn (corn; [3]): 60
- Plant response rating (scale of 0 to 100), Ragweed (ragweed; Postemergence, 16 g ai/ha): 15
- Plant response rating (scale of 0 to 100 where 0 is no effect and 100 is complete control), Ragweed (ragweed; [1]): 15
- Ragweed plant response rating (ragweed; [2]): 20
- Plant response rating, Ragweed (ragweed; [3]): 75
- Plant response rating (scale of 0 to 100), Foxtail, Giant (foxtail, giant; Postemergence, 16 g ai/ha): 10
- Plant response rating (scale of 0 to 100 where 0 is no effect and 100 is complete control), Foxtail, Giant (foxtail, giant; [1]): 10
- Foxtail, Giant plant response rating (foxtail, giant; [2]): 30
- Plant response rating, Foxtail, Giant (foxtail, giant; [3]): 65
- Plant response rating (scale of 0 to 100), Wheat (wheat; Postemergence, 16 g ai/ha): 0
- Plant response rating (scale of 0 to 100 where 0 is no effect and 100 is complete control), Wheat (wheat; [1]): 0
- Wheat plant response rating (wheat; [2]): 5
- Plant response rating, Wheat (wheat; [3]): 5
- Plant response rating (scale of 0 to 100), Nutsedge, Yellow (nutsedge, yellow; Postemergence, 16 g ai/ha): 5
- Plant response rating (scale of 0 to 100 where 0 is no effect and 100 is complete control), Nutsedge, Yellow (nutsedge, yellow; [1]): 5
- Nutsedge, Yellow plant response rating (nutsedge, yellow; [2]): 5
- Plant response rating, Nutsedge, Yellow (nutsedge, yellow; [3]): 40
- Plant response rating (scale of 0 to 100), Oilseed Rape (oilseed rape; Postemergence, 16 g ai/ha): 5
- Plant response rating (scale of 0 to 100 where 0 is no effect and 100 is complete control), Oilseed Rape (oilseed rape; [1]): 5
- Oilseed Rape plant response rating (oilseed rape; [2]): 5
- Plant response rating, Oilseed Rape (oilseed rape; [3]): 5
- Plant response rating (scale of 0 to 100), Ryegrass, Italian (ryegrass, Italian; Postemergence, 16 g ai/ha): 5
- Plant response rating (scale of 0 to 100 where 0 is no effect and 100 is complete control), Ryegrass, Italian (ryegrass, Italian; [1]): 5
- Ryegrass, Italian plant response rating (ryegrass, Italian; [2]): 5
- Plant response rating, Ryegrass, Italian (ryegrass, Italian; [3]): 10
- Plant response rating (scale of 0 to 100), Barnyardgrass (barnyardgrass; Postemergence, 16 g ai/ha): 5
- Plant response rating (scale of 0 to 100 where 0 is no effect and 100 is complete control), Barnyardgrass (barnyardgrass; [1]): 5
- Barnyardgrass plant response rating (barnyardgrass; [2]): 5
- Plant response rating, Barnyardgrass (barnyardgrass; [3]): 5
- Plant response rating (scale of 0 to 100), Pigweed (pigweed; Postemergence, 16 g ai/ha): 20
- Plant response rating (scale of 0 to 100 where 0 is no effect and 100 is complete control), Pigweed (pigweed; [1]): 35
- Pigweed plant response rating (pigweed; [2]): 45
- Plant response rating, Pigweed (pigweed; [3]): 75
- Plant response rating (scale of 0 to 100), Galium (galium; Postemergence, 16 g ai/ha): 20
- Plant response rating (scale of 0 to 100 where 0 is no effect and 100 is complete control), Galium (galium; [1]): 35
- Galium plant response rating (galium; [2]): 50
- Plant response rating, Galium (galium; [3]): 55
- Plant response rating (scale of 0 to 100), Kochia (kochia; Postemergence, 16 g ai/ha): 40
- Plant response rating (scale of 0 to 100 where 0 is no effect and 100 is complete control), Kochia (kochia; [1]): 60
- Kochia plant response rating (kochia; [2]): 65
- Plant response rating, Kochia (kochia; [3]): 65
- Plant response rating (scale of 0 to 100), Oat, Wild (oat, wild; Postemergence, 16 g ai/ha): 0
- Plant response rating (scale of 0 to 100 where 0 is no effect and 100 is complete control), Oat, Wild (oat, wild; [1]): 0
- Oat, Wild plant response rating (oat, wild; [2]): 5
- Plant response rating, Oat, Wild (oat, wild; [3]): 10
- Plant response rating (scale of 0 to 100), Lambsquarters (lambsquarters; Postemergence, 16 g ai/ha): 50
- Plant response rating (scale of 0 to 100 where 0 is no effect and 100 is complete control), Lambsquarters (lambsquarters; [1]): 50
- Lambsquarters plant response rating (lambsquarters; [2]): 65
- Plant response rating, Lambsquarters (lambsquarters; [3]): 75
